# According to patent US20260217677A1, “ORGANIC COMPOUNDS AS NLRP3 INHIBITORS” (KODIAK SCIENCES, INC., priority 2023, published 2026):
# Tested on: IL-1β release in U937 cells after NLRP3 activation
# Assay: IL-1β release inhibition in U937 cells (MSD V-Plex)
# Details: Homo sapiens, U-937, read-out: IL-1β IC50, Table 3; PMA-differentiated U937 cells, 1 μg/mL LPS 3 h, compound 30 min, 10 mM nigericin 1 h
# Protocol: Differentiating media was prepared by adding 20 nM phorbol 12-myristate 13-acetate (PMA) (AdipoGen AG-CN2-0010-M005) to growth medium. A cell suspension was prepared with differentiating media at 500K cells/mL. […] Plates were placed in an incubator for 90 hours. […] Differentiating media was removed and priming media was added to each well. The plates were placed in the incubator for three (3) hours. 20 mM compound DMSO stock solutions were prepared and were further diluted to 0.4 mM; This solution was serially diluted 6 times in a 1:5 ratio. A solvent control was included.
# After three (3) hours of priming, all the media was removed. Next, assay media with compounds was added in duplicate columns. The plate was placed in an incubator for 30 min. Media with a final concentration of 10 mM nigericin was then added for one (1) hour. The supernatant was collected and frozen immediately at −80° C. The plate was transferred to −20° C. the next day and for later determination of cytokine IL-1ß levels.
# The release of IL-1ß into the cell media was determined with the MSD® Multi-Spot Assay System (V-Plex, IL-1ß kit, K151KPD). Following the manufacturer's protocol (Alternate Protocol 3, Dilute-In-Plate), the level of IL-1ß in the above collected supernatant plate was measured using electro-chemiluminescent signals. Using MSD DISCOVERY WORKBENCH® analysis software, the signals were converted to the concentration of IL-1ß in each well. The IC50 values of the compounds were calculated using fitted non-linear regression curve in Graph Pad Prism software. The detection range of IL-1ß using MSD kit was approximately 0.15 to 600 μg/mL (based on various lots of standards purchased from MSD).
row,SMILES,IC50 [nM]
1,"Cc1cc(-c2ccc(C(F)(F)F)cc2O)nnc1N[C@@H]1CCCN(CC(=O)N2CC[C@@H](O)C2)C1 [Example 32, 2-((R)-3-((6-(2-Hydroxy-4-(trifluoromethyl)phenyl)-4-methylpyridazin-3-yl)amino)piperidin-1-yl)-1-((R)-3-hydroxypyrrolidin-1-yl)ethan-1-one]",5 to 50
2,"Cc1cc(N[C@@H]2CCCN(C(=O)C3CC4(CC(O)C4)C3)C2)nnc1-c1ccc(C(F)(F)F)cc1O (stereo partly drawn) [Example 61, (R)-(3-((6-(2-Hydroxy-4-(trifluoromethyl)phenyl)-5-methylpyridazin-3-yl)amino)piperidin-1-yl) (6-hydroxyspiro[3.3]heptan-2-yl)methanone]",5 to 50
3,"Cc1cc(N[C@@H]2CCCN(CCC3CC(O)C3)C2)nnc1-c1ccc(C(F)(F)F)cc1O (stereo partly drawn) [Example 66, (R)-2-(6-((1-(2-(3-Hydroxycyclobutyl)ethyl)piperidin-3-yl)amino)-4-methylpyridazin-3-yl)-5-(trifluoromethyl)phenol]",< 5
4,"Cc1c(N[C@@H]2CCCN(CC3CC(O)C3)C2)nnc(-c2ccc3sccc3c2O)c1C (stereo partly drawn) [Example 74, 5-(6-(((R)-1-(((1r,3R)-3-Hydroxycyclobutyl)methyl)piperidin-3-yl)amino)-4,5-dimethylpyridazin-3-yl)benzo[b]thiophen-4-ol]",< 5
5,"O=C(CN1CCC[C@@H](Nc2nnc(-c3ccc(C(F)(F)F)cc3O)c3c2COC3)C1)N1CC[C@@H](O)C1 [Example 27, 2-((R)-3-((4-(2-hydroxy-4-(trifluoromethyl)phenyl)-5,7-dihydrofuro[3,4-d]pyridazin-1-yl)amino)piperidin-1-yl)-1-((R)-3-hydroxypyrrolidin-1-yl) ethan-1-one]",5 to 50
6,"Cc1cc(-c2ccc(C(F)(F)F)cc2O)nnc1N[C@@H]1CCCN(CC(=O)N2CC[C@H](O)C2)C1 [Example 31, 2-((R)-3-((6-(2-Hydroxy-4-(trifluoromethyl)phenyl)-4-methylpyridazin-3-yl)amino)piperidin-1-yl)-1-((S)-3-hydroxypyrrolidin-1-yl)ethan-1-one]",50 to 500
7,"O=C(CN1CCC[C@@H](Nc2nnc(-c3ccc(C(F)(F)F)cc3O)c3c2COC3)C1)N1CC2(CCC(O)CC2)C1 [Compound 25, (R)-2-(3-((4-(2-Hydroxy-4-(trifluoromethyl)phenyl)-5,7-dihydrofuro[3,4-d]pyridazin-1-yl)amino)piperidin-1-yl)-1-(7-hydroxy-2-azaspiro[3.5]nonan-2-yl)ethan-1-one]",5 to 50
8,"Cc1cc(N[C@@H]2CCCN(CC(=O)N[C@H]3C[C@@H](O)C3)C2)nnc1-c1ccc(C(F)(F)F)cc1O [Compound 14, 2-((R)-3-((6-(2-Hydroxy-4-(trifluoromethyl)phenyl)-5-methylpyridazin-3-yl)amino)piperidin-1-yl)-N-((1s,3S)-3-hydroxycyclobutyl)acetamide]",5 to 50
9,"Cc1cc(N[C@@H]2CCCN(CCN3CC[C@@H](O)C3)C2)nnc1-c1ccc(C(F)(F)F)cc1O [Compound 3, (R)-1-(2-((R)-3-((6-(2-Hydroxy-4-(trifluoromethyl)phenyl)-5-methylpyridazin-3-yl)amino)piperidin-1-yl)ethyl)pyrrolidin-3-ol]",> 500
10,"Cc1cc(N[C@@H]2CCCN(CCN3CC(O)C3)C2)nnc1-c1ccc(C(F)(F)F)cc1O [Example 37, (R)-1-(2-(3-((6-(2-Hydroxy-4-(trifluoromethyl)phenyl)-5-methylpyridazin-3-yl)amino)piperidin-1-yl)ethyl)azetidin-3-ol]",5 to 50
11,"Cc1cc(N[C@@H]2CCCN(C(=O)C3CCCC(O)C3)C2)nnc1-c1ccc(C(F)(F)F)cc1O (single isomer, unassigned) [Example 70 Fraction A]",5 to 50

# Same assay, conditions: Homo sapiens, U-937, read-out: IL-1β IC50, Table 4; PMA-differentiated U937 cells, 1 μg/mL LPS 3 h, compound 30 min, 10 mM nigericin 1 h
row,SMILES,IC50 [nM]
1,"Cc1cc(N[C@@H]2CCCN(C3CCN(C(=O)N4CCNCC4)CC3)C2)nnc1-c1ccc(C(F)(F)F)cc1O [Example 86, (R)-(3-((6-(2-hydroxy-4-(trifluoromethyl)phenyl)-5-methylpyridazin-3-yl)amino)-[1,4′-bipiperidin]-1′-yl) (piperazin-1-yl)methanone]",5 to 50
2,"Cc1cc(N[C@@H]2CCCN(C3CNC3)C2)nnc1-c1ccc2sccc2c1O [Example 114, (R)-5-(6-((1-(azetidin-3-yl)piperidin-3-yl)amino)-4-methylpyridazin-3-yl)benzo[b]thiophen-4-ol]",< 5
3,"Cc1cc(N[C@@H]2CCCN(CC(=O)N(C)CCN)C2)nnc1-c1ccc(C(F)(F)F)cc1O [Example 79, (R)—N-(2-Aminoethyl)-2-(3-((6-(2-hydroxy-4-(trifluoromethyl)phenyl)-5-methylpyridazin-3-yl)amino)piperidin-1-yl)-N-methylacetamide]",50 to 500
4,"Cc1cc(N[C@@H]2CCCN(C3CNC3)C2)nnc1-c1ccc(C(F)(F)F)cc1O [Example 84, (R)-2-(6-((1-(Azetidin-3-yl)piperidin-3-yl)amino)-4-methylpyridazin-3-yl)-5-(trifluoromethyl)phenol]",5 to 50
5,"Cc1cc(N[C@@H]2CCCN(CCNCC3COC3)C2)nnc1-c1ccc(C(F)(F)F)cc1O [Example 108, (R)-2-(4-Methyl-6-((1-(2-((oxetan-3-ylmethyl)amino)ethyl)piperidin-3-yl)amino)pyridazin-3-yl)-5-(trifluoromethyl)phenol]",5 to 50
6,"Cc1cc(N[C@@H]2CCCN(C3CC(N)C3)C2)nnc1-c1ccc(C(F)(F)F)cc1O (stereo in doubt) [Example 91, 2-(6-(((R)-1-((1s*,3S*)-3-aminocyclobutyl)piperidin-3-yl)amino)-4-methylpyridazin-3-yl)-5-(trifluoromethyl)phenol]",5 to 50
7,"Cc1cc(N[C@@H]2CCCN(CC(=O)N3CCC4(CC3)CNC4)C2)nnc1-c1ccc(C(F)(F)F)cc1O [Example 102, (R)-2-(3-((6-(2-Hydroxy-4-(trifluoromethyl)phenyl)-5-methylpyridazin-3-yl)amino)piperidin-1-yl)-1-(2,7-diazaspiro[3.5]nonan-7-yl)ethan-1-one]",50 to 500
8,"Cc1cc(N[C@@H]2CCCN(CC(=O)N3CCC4(CCNCC4)CC3)C2)nnc1-c1ccc(C(F)(F)F)cc1O [Example 93, (R)-2-(3-((6-(2-Hydroxy-4-(trifluoromethyl)phenyl)-5-methylpyridazin-3-yl)amino)piperidin-1-yl)-1-(3,9-diazaspiro[5.5]undecan-3-yl)ethan-1-one]",50 to 500
9,"Oc1cc(C(F)(F)F)ccc1-c1nnc(N[C@@H]2CCCN(C3CCNCC3)C2)c2c1COC2 [Example 100, (R)-2-(4-([1,4′-Bipiperidin]-3-ylamino)-5,7-dihydrofuro[3,4-d]pyridazin-1-yl)-5-(trifluoromethyl)phenol]",5 to 50
10,"Cc1cc(N[C@@H]2CCCN(CC(=O)N3CCN[C@H](C)C3)C2)nnc1-c1ccc(C(F)(F)F)cc1O [Example 110, 2-((R)-3-((6-(2-Hydroxy-4-(trifluoromethyl)phenyl)-5-methylpyridazin-3-yl)amino)piperidin-1-yl)-1-((R)-3-methylpiperazin-1-yl)ethan-1-one]",5 to 50
11,"Oc1cc(F)ccc1-c1nnc(N[C@@H]2CCCN(C3CNC3)C2)c2c1CCC2 [Example 81, (R)-2-(4-((1-(Azetidin-3-yl)piperidin-3-yl)amino)-6,7-dihydro-5H-cyclopenta[d]pyridazin-1-yl)-5-fluorophenol]",50 to 500

# Same assay, conditions: read-out: IL-1β IC50; Table 3; PMA-differentiated U937 cells, 1 μg/mL LPS 3 h, compound 30 min, 10 mM nigericin 1 h
row,SMILES,IC50 [nM]
1,"Cc1cc(N[C@@H]2CCCN(C3CCN(C4CC(O)C4)CC3)C2)nnc1-c1ccc(C(F)(F)F)cc1O (single isomer, unassigned) [Example 38B]",5 to 50
